Assay [1] deals with Serine/threonine-protein kinase B-raf (Homo sapiens, UniProt P15056, V600E). Briefly: Inhibition of recombinant human N-terminal GST-tagged BRAF V600E mutant catalytic domain (416 to 766 residues) expressed in baculovirus expression system using human His6-tagged MEK1 (K97R) as substrate preincubated for 20 mins followed by [33P-gamma]ATP addition and measured after 2 hrs by filter-binding assay.

In assay [2] the target is T1, Histone deacetylase 1 (Homo sapiens, UniProt Q13547). Briefly: Inhibition of recombinant full-length human C-terminal FLAG/His-tagged HDAC1 expressed in baculovirus infected Sf9 insect cells using Fluor-de-Lys as substrate measured after 10 mins by fluorescence assay.
T1 sequence (Q13547 whole entry): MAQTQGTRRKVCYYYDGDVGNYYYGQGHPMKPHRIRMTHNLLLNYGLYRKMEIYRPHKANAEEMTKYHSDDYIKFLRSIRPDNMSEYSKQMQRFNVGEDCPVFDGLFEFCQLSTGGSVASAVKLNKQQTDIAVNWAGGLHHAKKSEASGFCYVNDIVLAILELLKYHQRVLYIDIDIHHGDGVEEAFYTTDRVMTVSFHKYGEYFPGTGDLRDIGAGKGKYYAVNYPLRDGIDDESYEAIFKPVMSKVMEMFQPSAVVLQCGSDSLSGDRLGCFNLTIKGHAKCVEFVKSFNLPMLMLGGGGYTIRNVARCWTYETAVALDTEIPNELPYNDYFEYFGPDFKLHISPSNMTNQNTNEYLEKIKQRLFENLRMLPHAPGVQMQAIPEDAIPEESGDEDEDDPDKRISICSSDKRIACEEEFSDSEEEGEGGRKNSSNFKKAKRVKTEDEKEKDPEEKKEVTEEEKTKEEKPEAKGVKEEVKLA
Assay [3] has as its target T2, Serine/threonine-protein kinase A-Raf (Homo sapiens, UniProt P10398).
T2 sequence (P10398 whole entry): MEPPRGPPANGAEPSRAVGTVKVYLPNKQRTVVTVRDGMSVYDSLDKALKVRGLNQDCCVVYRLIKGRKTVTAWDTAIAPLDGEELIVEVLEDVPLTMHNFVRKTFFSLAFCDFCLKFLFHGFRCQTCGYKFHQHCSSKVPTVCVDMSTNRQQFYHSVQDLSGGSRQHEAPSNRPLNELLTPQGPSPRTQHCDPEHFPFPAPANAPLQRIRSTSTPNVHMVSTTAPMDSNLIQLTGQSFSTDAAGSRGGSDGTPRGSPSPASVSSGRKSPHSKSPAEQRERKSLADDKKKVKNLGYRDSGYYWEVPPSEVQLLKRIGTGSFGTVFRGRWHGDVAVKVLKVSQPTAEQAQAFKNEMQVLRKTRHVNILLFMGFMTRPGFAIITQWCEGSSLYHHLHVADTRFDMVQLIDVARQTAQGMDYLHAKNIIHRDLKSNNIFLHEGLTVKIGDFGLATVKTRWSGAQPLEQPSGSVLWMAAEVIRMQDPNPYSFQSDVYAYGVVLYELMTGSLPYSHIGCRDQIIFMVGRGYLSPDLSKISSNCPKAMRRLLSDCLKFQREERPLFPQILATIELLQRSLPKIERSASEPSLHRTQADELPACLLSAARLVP
As to the kind of experiment: Inhibition of human ARAF using human His6-tagged MEK1 (K97R) as substrate preincubated for 20 mins followed by [33P-gamma]ATP addition and measured after 2 hrs by filter-binding assay.

The next assay deals with K562. Briefly: Antiproliferative activity against human K562 cells measured after 48 hrs by MTT assay. In kind it is functional, cell-based. The note with it: K562, 48 h.
Assay [4] addresses T3, Protein deacetylase HDAC6 (Homo sapiens) (UniProt Q9UBN7).
T3 sequence (whole entry): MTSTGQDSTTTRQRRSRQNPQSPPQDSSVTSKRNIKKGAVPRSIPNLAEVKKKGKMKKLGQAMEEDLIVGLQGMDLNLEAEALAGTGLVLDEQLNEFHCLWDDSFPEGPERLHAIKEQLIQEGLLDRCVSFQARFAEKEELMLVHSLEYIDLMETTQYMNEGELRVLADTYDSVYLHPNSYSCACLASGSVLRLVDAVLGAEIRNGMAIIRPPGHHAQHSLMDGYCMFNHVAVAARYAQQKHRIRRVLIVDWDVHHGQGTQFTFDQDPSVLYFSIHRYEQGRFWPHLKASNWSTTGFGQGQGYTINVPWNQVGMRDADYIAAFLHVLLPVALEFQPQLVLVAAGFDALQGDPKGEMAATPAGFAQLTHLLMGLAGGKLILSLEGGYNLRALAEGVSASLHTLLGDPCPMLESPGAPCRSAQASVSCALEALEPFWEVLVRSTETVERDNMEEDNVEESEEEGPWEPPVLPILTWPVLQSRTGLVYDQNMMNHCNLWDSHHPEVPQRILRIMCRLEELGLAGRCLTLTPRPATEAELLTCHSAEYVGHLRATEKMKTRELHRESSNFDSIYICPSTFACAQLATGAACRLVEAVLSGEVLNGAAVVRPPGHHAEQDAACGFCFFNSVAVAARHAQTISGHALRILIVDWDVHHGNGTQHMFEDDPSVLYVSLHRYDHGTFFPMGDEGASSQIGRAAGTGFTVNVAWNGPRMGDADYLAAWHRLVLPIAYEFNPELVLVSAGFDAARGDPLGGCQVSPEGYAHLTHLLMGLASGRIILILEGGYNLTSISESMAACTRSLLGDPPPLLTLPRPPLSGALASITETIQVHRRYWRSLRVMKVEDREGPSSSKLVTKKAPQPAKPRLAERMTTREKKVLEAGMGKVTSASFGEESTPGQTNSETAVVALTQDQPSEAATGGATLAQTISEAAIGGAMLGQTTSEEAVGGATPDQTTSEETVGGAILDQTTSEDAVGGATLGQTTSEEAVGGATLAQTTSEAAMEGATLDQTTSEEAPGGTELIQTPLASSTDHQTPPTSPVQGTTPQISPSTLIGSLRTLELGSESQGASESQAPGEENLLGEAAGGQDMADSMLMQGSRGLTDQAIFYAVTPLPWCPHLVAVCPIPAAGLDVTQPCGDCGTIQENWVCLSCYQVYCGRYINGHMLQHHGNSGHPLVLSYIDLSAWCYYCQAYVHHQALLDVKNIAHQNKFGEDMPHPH
As to the kind of experiment: Inhibition of recombinant human HDAC6 at 50 uM using Fluor-de-Lys as substrate measured after 10 mins by fluorescence assay.

The next assay concerns MV4-11. As to the kind of experiment: Antiproliferative activity against human MV4-11 cells measured after 48 hrs by MTT assay. In kind it is functional, cell-based. As to conditions: MV4-11, 48 h.
For the next assay, the system named is HepG2. As to the kind of experiment: Antiproliferative activity against human HepG2 cells measured after 48 hrs by MTT assay. In kind it is functional, cell-based. The note with it: HepG2, 48 h.
In the next assay the test system is MDA-MB-468. As to the kind of experiment: Antiproliferative activity against human MDA-MB-468 cells measured after 48 hrs by MTT assay. It is filed as functional, cell-based. The note with it: MDA-MB-468, 48 h.
In assay [5] the target is RAF proto-oncogene serine/threonine-protein kinase (Homo sapiens, UniProt P04049). Briefly: Inhibition of human CRAF using human His6-tagged MEK1 (K97R) as substrate preincubated for 20 mins followed by [33P-gamma]ATP addition and measured after 2 hrs by filter-binding assay.
Chain of RAF proto-oncogene serine/threonine-protein kinase (P04049 whole entry): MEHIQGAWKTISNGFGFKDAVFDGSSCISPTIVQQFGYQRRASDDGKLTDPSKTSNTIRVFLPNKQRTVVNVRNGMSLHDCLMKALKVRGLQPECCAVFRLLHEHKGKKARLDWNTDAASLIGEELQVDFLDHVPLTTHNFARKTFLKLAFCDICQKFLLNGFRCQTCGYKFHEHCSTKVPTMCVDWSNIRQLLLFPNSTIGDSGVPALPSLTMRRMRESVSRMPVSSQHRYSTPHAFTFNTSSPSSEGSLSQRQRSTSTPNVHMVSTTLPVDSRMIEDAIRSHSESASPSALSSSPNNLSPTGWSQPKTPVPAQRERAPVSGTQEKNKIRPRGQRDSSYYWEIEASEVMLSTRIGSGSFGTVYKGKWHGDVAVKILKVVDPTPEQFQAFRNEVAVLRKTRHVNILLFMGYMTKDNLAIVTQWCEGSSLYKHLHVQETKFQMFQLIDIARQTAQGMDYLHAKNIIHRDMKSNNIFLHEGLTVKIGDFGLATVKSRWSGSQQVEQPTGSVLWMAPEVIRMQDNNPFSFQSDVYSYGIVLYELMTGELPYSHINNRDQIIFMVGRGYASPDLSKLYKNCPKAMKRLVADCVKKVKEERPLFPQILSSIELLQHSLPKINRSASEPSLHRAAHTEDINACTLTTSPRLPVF
In assay [6] the target is T4, Histone deacetylase 8 (Homo sapiens) (UniProt Q9BY41).
T4 sequence (whole entry): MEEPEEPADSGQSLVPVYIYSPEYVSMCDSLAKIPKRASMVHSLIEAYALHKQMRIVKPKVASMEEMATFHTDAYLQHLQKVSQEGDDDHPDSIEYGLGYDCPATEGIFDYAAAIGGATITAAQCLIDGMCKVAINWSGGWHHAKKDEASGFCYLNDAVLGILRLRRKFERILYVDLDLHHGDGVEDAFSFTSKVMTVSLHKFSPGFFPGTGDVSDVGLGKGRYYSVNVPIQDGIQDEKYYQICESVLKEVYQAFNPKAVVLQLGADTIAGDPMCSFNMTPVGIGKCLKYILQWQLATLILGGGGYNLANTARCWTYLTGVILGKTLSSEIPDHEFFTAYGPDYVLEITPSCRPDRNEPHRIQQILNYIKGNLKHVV
As to the kind of experiment: Inhibition of recombinant full-length human C-terminal His-tagged HDAC8 expressed in baculovirus infected Sf9 insect cells at 50 uM using Fluor-de-Lys as substrate measured after 10 mins by fluorescence assay.

In assay [7] the target is T1, Histone deacetylase 1. As to the kind of experiment: Inhibition of recombinant full-length human C-terminal FLAG/His-tagged HDAC1 expressed in baculovirus infected Sf9 insect cells at 50 uM using Fluor-de-Lys as substrate measured after 10 mins by fluorescence assay.
Assay [8] deals with T1, Histone deacetylase 1. Briefly: Inhibition of HDAC1 (unknown origin).

Calls of active or inactive are those of the source. The rule behind the calls is not given here.

`CNC(=O)c1cc(Oc2ccc(NC(=O)c3ccc(N)cc3)cc2)ccc1N`: the values for the half-inhibitory concentration (IC50) (in assay [1]; on Histone deacetylase 1 [2]) were 942 nM and 2270 nM, respectively.

For the compound `CNC(=O)c1cc(Oc2ccc(NC(=O)c3ccc(OC)cc3)cc2)ccc1N`, the IC50 in assay [3] came to 211 nM; in assay [1] it was 187 nM; in the assay with K562, 5220 nM; with MV4-11 it was 1870 nM; on Histone deacetylase 1 [2] it was 2460 nM; with HepG2, 6650 nM. Moreover, the IC50 in the assay on MDA-MB-468 worked out at 950 nM; in assay [5], 652 nM. Moreover, the inhibition entry in assay [4] and in assay [6] was “inactive” each time.

As to `CNC(=O)c1cc(Oc2ccc(NC(=O)c3ccc4ccccc4c3)cc2)ccc1N`, the concentration for half-maximal inhibition (IC50) in assay [1] is 237 nM; in the assay on K562, 10300 nM; in the assay on MV4-11, 8210 nM; on Histone deacetylase 1 [2], 8210 nM; in the assay on HepG2 it was 7280 nM; with MDA-MB-468, 3910 nM.

For the compound `CNC(=O)c1cc(Oc2ccc(NC(=O)c3ccc(Cl)cc3)cc2)ccc1N`, the concentration for half-maximal inhibition (IC50) in assay [1] came out at 165 nM; in the assay on K562, 7120 nM; with MV4-11, 9230 nM; at Histone deacetylase 1 [2], 7110 nM; with HepG2 it was 5130 nM; in the assay with MDA-MB-468, 4240 nM.

On to `CNC(=O)c1cc(Oc2ccc(NC(=O)c3cccc(O)c3)cc2)ccc1N`, for which the half-inhibitory concentration (IC50) in assay [1] is 4060 nM; on Histone deacetylase 1 [2] it was 1950 nM.

Turning to `CN(C)C(=O)c1cc(Oc2ccc(NC(=O)c3ccc(Cl)c(C(F)(F)F)c3)cc2)ccc1N`, in assay [1], the half-maximal inhibitory concentration (IC50) is 4170 nM. The inhibition entry on Histone deacetylase 1 [7] is “inactive”.

Consider `CCNC(=O)c1cc(Oc2ccc(NC(=O)c3ccc(Cl)c(C(F)(F)F)c3)cc2)ccc1N`, for which the 50% inhibitory concentration (IC50) in assay [1] amounted to 354 nM; at Histone deacetylase 1 [2], 1620 nM.

With `CNC(=O)c1cc(Oc2ccc(NC(=O)c3cccc(N)c3)cc2)ccc1N`, the IC50 is 3260 nM in [1] and 1030 nM at Histone deacetylase 1 [2].

As for `NC(=O)c1cc(Oc2ccc(NC(=O)c3ccc(Cl)c(C(F)(F)F)c3)cc2)ccc1N`, the IC50 in assay [1] was 688 nM; at Histone deacetylase 1 [2], 2790 nM.

Regarding `CNC(=O)c1cc(Oc2ccc(NC(=O)c3ccc(Cl)c(C(F)(F)F)c3)cc2)ccc1N`, the IC50 in assay [3] is 183 nM; in assay [1], 73 nM; in the assay on K562 it was 2730 nM; with MV4-11, 1120 nM; on Histone deacetylase 1 [2], 1170 nM; with HepG2, 1330 nM. Further, the IC50 with MDA-MB-468 was 570 nM; in assay [5], 92 nM. Besides, the inhibition result in [4] and in assay [6] was “inactive” in each case.

In the case of `CNC(=O)c1cc(Oc2ccc(NC(=O)Nc3ccc(Cl)c(C(F)(F)F)c3)cc2)ccn1` [SORAFENIB], the 50% inhibitory concentration (IC50) is 17200 nM in the assay on K562, 510 nM with MV4-11, 3040 nM with HepG2 and 12200 nM in the assay with MDA-MB-468.

For the compound `CNC(=O)c1cc(Oc2ccc(NC(=O)c3cccnc3)cc2)ccc1N`, the IC50 in assay [1] was found to be 1780 nM; against Histone deacetylase 1 [8], 5230 nM; at Histone deacetylase 1 [2], 5230 nM.

For `Nc1cc(F)ccc1NC(=O)c1ccc(CNC(=O)/C=C/c2cccnc2)cc1` [TUCIDINOSTAT], the half-inhibitory concentration (IC50) in the assay on K562 is 870 nM; in the assay on MV4-11 it was 3730 nM; with HepG2, 4890 nM; in the assay on MDA-MB-468 it was 2650 nM. Further, the inhibition result in assay [4] and in [6] was “inactive” in each case.

Turning to `CNC(=O)c1cc(Oc2ccc(NC(=O)c3ccc(F)cc3)cc2)ccc1N`, the IC50 in assay [1] was 303 nM; with K562 it was 6430 nM; in the assay with MV4-11, 5320 nM; at Histone deacetylase 1 [2], 7650 nM; in the assay with HepG2, 7560 nM; in the assay on MDA-MB-468, 5760 nM.

For `CNC(=O)c1cc(Oc2ccc(NC(=O)c3ccccc3)cc2)ccc1N`, the half-inhibitory concentration (IC50) in assay [1] was determined as 342 nM; at Histone deacetylase 1 [2] it was 6190 nM.

Values taken from ChEMBL document CHEMBL4390702, “Discovery of novel phenoxybenzamide analogues as Raf/HDAC dual inhibitors” (Bioorg Med Chem Lett, 2019).
